Among the test systems are UACC-62 melanoma; COLO 205 colon; A498 renal; 786-0 renal; HT29 colon; SK-MEL-5 melanoma; CCRF-CEM leukemia; MDA-MB-435; SK-MEL-2 melanoma; NCI/ADR-RES ovarian; KM12 colon; HS 578T breast.
What all share (test): DTP human tumour cell line panel, 48 h

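Results reflect a 48-hour exposure of cells in 96-well plates to compound at five concentrations. TGI marks complete inhibition of growth.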

In general, TGI refers to the concentration giving total growth inhibition. Read a high TGI as lower sensitivity of the cells. `CC[C@H](CCCCC1CC[C@@H]2CC(=O)C[C@H]12)OC` (some centres not stated): the concentration for total growth inhibition (TGI) in the experiment with UACC-62 melanoma, in the experiment with COLO 205 colon, in the experiment on A498 renal, in the experiment with 786-0 renal, in the experiment with HT29 colon and in the experiment with SK-MEL-5 melanoma was greater than 100 µM each time. For the same molecule, the TGI in the experiment on CCRF-CEM leukemia, with MDA-MB-435, with SK-MEL-2 melanoma, in the experiment on NCI/ADR-RES ovarian, in the experiment on KM12 colon and in the experiment with HS 578T breast was greater than 100 µM throughout.
With `Nc1nc(Cl)c2ncn(Cc3ccccc3CCl)c2n1`, the TGI in the experiment on UACC-62 melanoma is 4.33 µM; in the experiment on COLO 205 colon, greater than 100 µM; in the experiment with A498 renal, 44.3 µM; in the experiment with 786-0 renal it was 52 µM; in the experiment on HT29 colon it was 18.9 µM; in the experiment on SK-MEL-5 melanoma, 26.5 µM. Besides, the TGI is greater than 100 µM with CCRF-CEM leukemia; 27 µM in the experiment with MDA-MB-435; 80.6 µM with SK-MEL-2 melanoma; 34.6 µM in the experiment with NCI/ADR-RES ovarian; 39 µM in the experiment with KM12 colon; 77.6 µM in the experiment on HS 578T breast.
As for `COc1cc(CNC(=O)CCCCCCCC/C=C/Br)ccc1O`, the concentration for total growth inhibition (TGI) in the experiment on UACC-62 melanoma, with COLO 205 colon, in the experiment on A498 renal, in the experiment on 786-0 renal, with HT29 colon and in the experiment with SK-MEL-5 melanoma was greater than 10 µM in each case. For the same molecule, the TGI with CCRF-CEM leukemia, in the experiment with MDA-MB-435, in the experiment with SK-MEL-2 melanoma, with NCI/ADR-RES ovarian, with KM12 colon and in the experiment with HS 578T breast was greater than 10 µM throughout.
Consider `COc1cc(/C=C2\NC(=O)N(/C=C3\C(=O)Oc4ccccc4C3=O)C2=O)ccc1O`, for which the total growth inhibition concentration (TGI) in the experiment on UACC-62 melanoma, in the experiment with COLO 205 colon, with A498 renal, in the experiment with 786-0 renal, in the experiment on HT29 colon and with SK-MEL-5 melanoma was greater than 100 µM each time. Besides, the TGI in the experiment with CCRF-CEM leukemia was 92.6 µM; with MDA-MB-435 it was greater than 100 µM; in the experiment on SK-MEL-2 melanoma, greater than 100 µM; in the experiment on NCI/ADR-RES ovarian, greater than 100 µM; with KM12 colon, greater than 100 µM; in the experiment on HS 578T breast it was greater than 100 µM.
For the molecule `O=C(O)/C(=C\c1ccccc1)Cc1ccccc1`, the total growth inhibition concentration (TGI) in the experiment with UACC-62 melanoma, in the experiment with COLO 205 colon, in the experiment on A498 renal, in the experiment with 786-0 renal, with HT29 colon and in the experiment with SK-MEL-5 melanoma was greater than 100 µM throughout. In addition, the TGI in the experiment on CCRF-CEM leukemia, in the experiment with MDA-MB-435, with SK-MEL-2 melanoma, with NCI/ADR-RES ovarian, with KM12 colon and with HS 578T breast was greater than 100 µM in each case.
`COC(=O)[C@]1(c2cc3ccccc3[nH]2)CC2CN(CC(=O)N(C)OC)C1C1OC(C)(C)OC21` (some centres not stated): the TGI in the experiment on UACC-62 melanoma is greater than 100 µM; with COLO 205 colon it was greater than 100 µM; with A498 renal, 91.7 µM; in the experiment with 786-0 renal, greater than 100 µM; in the experiment on HT29 colon, greater than 100 µM; with SK-MEL-5 melanoma, greater than 100 µM. Moreover, the TGI in the experiment with CCRF-CEM leukemia, in the experiment on MDA-MB-435, with SK-MEL-2 melanoma, in the experiment with NCI/ADR-RES ovarian, with KM12 colon and in the experiment on HS 578T breast was greater than 100 µM in each case.
As to `Nc1nc(Cl)cc(Nc2ccc3c(c2)CCC3)n1`, the concentration for total growth inhibition (TGI) in the experiment with UACC-62 melanoma, in the experiment with COLO 205 colon, with A498 renal, with 786-0 renal, with HT29 colon and with SK-MEL-5 melanoma was greater than 100 µM each time. The TGI in the experiment with CCRF-CEM leukemia, in the experiment with MDA-MB-435, in the experiment on SK-MEL-2 melanoma, with NCI/ADR-RES ovarian, with KM12 colon and in the experiment on HS 578T breast was greater than 100 µM in each case.
Turning to `O=[N+]([O-])c1cc(Cl)ccc1S(=O)(=O)c1ccccc1`, the concentration for total growth inhibition (TGI) with UACC-62 melanoma, with COLO 205 colon, with A498 renal, in the experiment with 786-0 renal, in the experiment with HT29 colon and in the experiment on SK-MEL-5 melanoma was greater than 100 µM each time. Besides, the TGI in the experiment with CCRF-CEM leukemia is greater than 100 µM; in the experiment with MDA-MB-435, greater than 100 µM; in the experiment with SK-MEL-2 melanoma, 53.8 µM; in the experiment on NCI/ADR-RES ovarian, greater than 100 µM; with KM12 colon, greater than 100 µM; with HS 578T breast, greater than 100 µM.
For `COc1cc2c(cc1OC)-c1cc3ccccc3c(=O)n1CCC2`, the total growth inhibition concentration (TGI) with UACC-62 melanoma was 36.5 µM; with COLO 205 colon, greater than 60.2 µM; with A498 renal, 31.5 µM; in the experiment with 786-0 renal, greater than 51.3 µM; in the experiment on HT29 colon it was 41.2 µM; with SK-MEL-5 melanoma, 28 µM. Besides, the TGI in the experiment with CCRF-CEM leukemia is 33.9 µM; in the experiment on MDA-MB-435 it was greater than 53.7 µM; with SK-MEL-2 melanoma, 86.6 µM; with NCI/ADR-RES ovarian it was 32.2 µM; with KM12 colon it was 38 µM; in the experiment on HS 578T breast it was greater than 100 µM.
Turning to `CC(=O)OCCn1c(Cc2ccc([N+](=O)[O-])cc2)nn(C(C)=O)c1=O`, the concentration for total growth inhibition (TGI) in the experiment on UACC-62 melanoma, with COLO 205 colon, in the experiment with A498 renal, in the experiment with 786-0 renal, in the experiment on HT29 colon and in the experiment on SK-MEL-5 melanoma was greater than 100 µM in each case. Besides, the total growth inhibition concentration (TGI) in the experiment with CCRF-CEM leukemia, with MDA-MB-435, in the experiment on SK-MEL-2 melanoma, in the experiment with NCI/ADR-RES ovarian, with KM12 colon and with HS 578T breast was greater than 100 µM throughout.
As for `C=CCSc1nn(CC=C)cc2ncnc1-2`, the concentration for total growth inhibition (TGI) in the experiment with UACC-62 melanoma, with COLO 205 colon, in the experiment on A498 renal, in the experiment on 786-0 renal, with HT29 colon and in the experiment with SK-MEL-5 melanoma was greater than 100 µM each time. Besides, the TGI in the experiment with CCRF-CEM leukemia, with MDA-MB-435, in the experiment with SK-MEL-2 melanoma, in the experiment on NCI/ADR-RES ovarian, in the experiment with KM12 colon and with HS 578T breast was greater than 100 µM in each case.

The values above are taken from PubChem BioAssay (NCI).
